According to US20060161007A1, “Oxazole and thiazole combinatorial libraries” (priority 1999, published 2006):

Columns and labels:
DNA = DNA binding activity by capillary zone electrophoresis
Method: The DNA binding activity of the tetrapeptide amides in the first library was measured using capillary zone electrophoresis.

[1] = solubility of building block 3 in solvents; type: physicochemical
Method: 2-(2′-Boc-aminomethyl-oxazole-4′-yl)-thiazole-4-carboxylic acid (37) (0.65 g, 2 mmol) was added in 30 ml of 40% TFA in DCM and stirred for 60 min. The solvent was removed by concentration under reduced pressure. The residue was diluted with 10 ml of water, which was neutralized to pH 7 by adding 1 M sodium hydroxide (aqueous solution), followed by addition of solid sodium carbonate (0.42 g, 4 mmole) and a solution of Fmoc-OSu (1 g, 3 mmole) in 60 ml of THF. After stirring for 2 hours (white solid precipitated), the reaction mixture was concentrated under reduced pressure to remove the THF, and diluted with 30 ml of water. The aqueous solution was washed with DCM (50 ml×3), and acidified to pH 3 by adding 10% potassium hydrogensulfate (aqueous solution). The white solid which formed was collected by filtration. This product was insoluble in DCM, ether, EtOAc, THF, methanol, ethanol, acetonitrile, HFIP, DMF, NMP and water. It was soluble in DMSO or the solutions containing more than 50% DMSO in DMF or NMP. The product was recrystallized in DMSO-water to give a fine white powder (0.69 g). Yield: 77%. RP-HPLC analysis: retention […]=14.18 min (average of two runs). ^1H-NMR (90 MHz, DMSO-d6) δ ppm: 8.74 (s, 1H), 8.38 (s, 1H), 7.89-7.31 (m, 8H), and 4.394.30 (m, 5H). ESI-MS (m/z): 448.2 [M +H]+, (calculated monoisotopic mass 448.10), 470.2 [M+Na]^+, 486.2 [M+K]^+.

Vibrio anguillarum = assay: growth of Vibrio anguillarum cultures (OD650) after incubation with peptide; type: cell-based; conditions: for effect on the growth of V. anguillarum cultures: result in words; for OD650 of V. anguillarum cultures: 28°; for killing of the bacteria: OD of the cultures still increased at different incubation times
Method: The marin bacterium Vibrio anguillarum, a fish pathogen causing the disease “vibriosis” in marine fish and shellfish were used in this experiment.
Bacteria (V. anguillarum) were grown overnight at 28° C. in Luria-Bertani (LB) 20 medium (the concentration of NaCl is 20 g/L for marine bacteria in LB medium, instead of the usual 10 g/L). The culture was re-inoculated and incubated in LB20 medium at 28° C. (ca. 2hr) to reach the exponential growth phase of the bacteria. The bacterial suspension was then dilute with 0.1×LB20 medium to make the bacterial dilution containing 2×10^3 colony-forming units (cfm)/ml.
At time zero, the bacteria were treated with the peptide in 0.1×LB20 medium. After incubation for 3 hours, 1×LB20 medium was added to the culture, and incubated for 20 hours.

[2] = 31.2 μM peptide, 9 hr incubation
[3] = 31.2 μM peptide, 20 hr incubation
[4] = 62.5 μM peptide, 9 hr incubation
[5] = 62.5 μM peptide, 20 hr incubation
[6] = 125 μM peptide, 9 hr incubation
[7] = 125 μM peptide, 20 hr incubation
[8] = 250 μM peptide, 9 hr incubation
[9] = 250 μM peptide, 20 hr incubation
[10] = 500 μM peptide, 9 hr incubation
[11] = 500 μM peptide, 20 hr incubation

Compound	Ka(1), stoichiometric equilibrium binding constant near saturation (DNA)	effect on the growth of V. anguillarum cultures (Vibrio anguillarum)	OD650 of V. anguillarum cultures (Vibrio anguillarum; [2])	OD650 of V. anguillarum cultures (Vibrio anguillarum; [3])	OD650 of V. anguillarum cultures (Vibrio anguillarum; [4])	OD650 of V. anguillarum cultures (Vibrio anguillarum; [5])	OD650 of V. anguillarum cultures (Vibrio anguillarum; [6])	OD650 of V. anguillarum cultures (Vibrio anguillarum; [7])	OD650 of V. anguillarum cultures (Vibrio anguillarum; [8])	OD650 of V. anguillarum cultures (Vibrio anguillarum; [9])	OD650 of V. anguillarum cultures (Vibrio anguillarum; [10])	OD650 of V. anguillarum cultures (Vibrio anguillarum; [11])	killing of the bacteria (Vibrio anguillarum)	other results
2-(2′-Fmoc-aminomethyl-oxazole-4′-yl)-thiazole-4-carboxylic acid [Compound 3]	20000 M⁻¹	–	–	–	–	–	–	–	–	–	–	–	–	–
2-(Fmoc-aminomethyl)-oxazole-4-carboxylic acid [Compound 2]	24000 M⁻¹	–	–	–	–	–	–	–	–	–	–	–	–	–
2-(Fmoc-aminomethyl)-thiazole-4-carboxylic acid [Compound 1]	25000 M⁻¹	–	–	–	–	–	–	–	–	–	–	–	–	–
O=C(NCc1nc(-c2nc(C(=O)O)cs2)co1)OCC1c2ccccc2-c2ccccc21 [Compound 3, 2-(2′-Fmoc-aminomethyl-oxazole-4′-yl)-thiazole-4-carboxylic acid]	–	–	–	–	–	–	–	–	–	–	–	–	–	solubility ([1]; in DCM, ethyl ether, EtOAc, THF, methanol, ethanol, acetonitrile, HFIP, DMF, NMP or water): did not dissolve; solubility ([1]; in DCM, ethyl ether, EtOAc, THF, methanol, ethanol, acetonitrile, HFIP, DMF, NMP or water, listed as Compound (3)): insoluble; solubility ([1]; in DMSO, or solutions containing at least 50% DMSO in DMF or NMP): could only dissolve; solubility ([1]; in DMSO, or solutions containing at least 50% DMSO in DMF or NMP, listed as Compound (3)): soluble
CC(=O)NCc1nc(-c2nc(C(=O)NCC(=O)NCc3nc(C(=O)NCCCN)cs3)cs2)co1 [Compound L2-3]	–	did not have a detectable effect	–	–	–	–	–	–	–	–	–	–	–	–
CC(=O)NCc1nc(-c2nc(C(=O)NCC(=O)NCc3nc(C(=O)NCCCN)co3)cs2)co1 [Compound L2-6]	–	inhibited the growth	0.137	0.395	0.130	0.391	0.120	0.402	0.113	0.427	0.073	0.388	did not kill the bacteria	–
CC(=O)NCc1nc(-c2nc(C(=O)NCC(=O)NCc3nc(-c4nc(C(=O)NCCCN)cs4)co3)cs2)co1 [Compound L2-9]	–	inhibited the growth	0.135	0.417	0.135	0.421	0.131	0.425	0.125	0.409	0.075	0.354	did not kill the bacteria	–
Microcin B17 fragment 13-23 [Compound 39]	–	inhibited the growth	0.111	0.419	0.082	0.297	0.051	0.279	0.034	0.241	0.034	0.244	did not kill the bacteria	–
tachyplesin [reference compound]	–	–	–	–	–	–	–	–	–	–	–	–	–	OD650 of V. anguillarum cultures (Vibrio anguillarum; 6.25 μg/ml peptide, 9 hr incubation): 0.068; OD650 of V. anguillarum cultures (Vibrio anguillarum; 6.25 μg/ml peptide, 20 hr incubation): 0.036; OD650 of V. anguillarum cultures (Vibrio anguillarum; 12.5 μg/ml peptide, 9 hr incubation): 0.035; OD650 of V. anguillarum cultures (Vibrio anguillarum; 12.5 μg/ml peptide, 20 hr incubation): 0.035; OD650 of V. anguillarum cultures (Vibrio anguillarum; 25 μg/ml peptide, 9 hr incubation): 0.035; OD650 of V. anguillarum cultures (Vibrio anguillarum; 25 μg/ml peptide, 20 hr incubation): 0.035; OD650 of V. anguillarum cultures (Vibrio anguillarum; 50 μg/ml peptide, 9 hr incubation): 0.039; OD650 of V. anguillarum cultures (Vibrio anguillarum; 50 μg/ml peptide, 20 hr incubation): 0.038; OD650 of V. anguillarum cultures (Vibrio anguillarum; Dilution 5 (31.2 μg/ml) peptide, 9 hr incubation): 0.098; OD650 of V. anguillarum cultures (Vibrio anguillarum; Dilution 5 (31.2 μg/ml) peptide, 20 hr incubation): 0.034
